Source: patent US20210308034A1, “PREBIOTIC COMPOSITIONS AND METHODS FOR MAINTAINING A HEALTHY SKIN MICROBIOTA” (KIMBERLY-CLARK WORLDWIDE, INC., priority 2018, published 2021)

Assays:
Format in all cases: cell-based
[1] = tested on: Klebsiella pneumoniae (ATCC BAA-2146); conditions: Pathogenic; carbon microarray plate, OD 600 nm, 36 hr, 33° C.; positive = more than 0.05 OD units above zero; blank cell = not utilized
Text: (§1) After creating desired ratios of various commensal skin bacteria in a healthy skin microbiome, 188 different carbohydrate sources were screened as the next step in determining potential prospects for skin microbiota balancing agents. The screening process was set up to determine which carbohydrate sources promoted commensal and/or pathogenic bacteria as well as to obtain individual and combinations of carbohydrate sources that could serve as microbiota balancing agents that can support or maintain the healthy proportions of commensal skin bacteria of Corynebacterium, Staphylococcus, and Micrococcus. The screening was conducted utilizing Biolog phenotype microarray plates (Hayward, Calif.). Table 1 provides a coded list of the commensal and pathogenic skin bacteria that the carbohydrates were screened against.
Table 2 provides the results of screening various carbohydrate sources against the commensal and pathogenic bacteria codes listed in Table 1. The Bacteria Codes B, D, E, I, and J are commensal bacteria and are shaded in Table 2 for references purposes. The bacteria codes were each placed in a carbon microarray plate and screened through the Carbohydrate Screening Test Method, as described in the Test Methods section herein. If a particular bacteria code utilized a specific carbohydrate source as described in the Carbohydrate Screening Test Method, then the corresponding cell in Table 2 was marked with a Y (short for “Yes”). […] Many of the carbohydrate sources were utilized by both commensal and pathogenic bacteria, and as such, would not provide an advantage for selective growth of the commensal bacteria. However, some of the carbohydrate sources were only used by commensal bacteria and were identified for further testing as described herein.
(§2) The study employed 10 representative skin bacteria; Staphylococcus epidermidis ATCC 14990, Staphylococcus epidermidis M23864:W2, Staphylococcus aureus ATCC 6538, Staphylococcus aureus ATCC 25904 (Newman), Pseudomonas aeruginosa ATCC 9027, Micrococcus luteus ATCC […], Micrococcus luteus SK58, Klebsiella pneumoniae ATCC BAA-2146, Corynebacterium amycolatum SK46, and Corynebacterium minutissimum ATCC 23348. Cultures were started from freezer bead stocks by placing a single bead into 20 mL of tryptic soy broth (TSB) for all organisms except C. amycolatum SK46 and C. minutissimum ATCC 23348, which were placed into brain heart infusion (BHI) broth. Cultures were grown for about 24 hr at 37° C. except M. luteus ATCC 49732 and M. luteus SK58, which were grown at 30° C. A passage of the culture was made using a sterile swab and streaked onto two M9*2 agar plates to prepare the incubated culture for the phenotype microarray pate according to Table 4. Plates were incubated for about 24 hr at 37° C. except for M. luteus ATCC 49732 and M. luteus SK58, which were incubated at 30° C. for 24 hr.
(§3) All cultures were harvested and washed before inoculation into the carbon microarray plate (BiOLOG, Hayward Calif.), with Biolog Plates PM1 and PM2 each having a source definition of Carbon. The bacteria on the M9*2 agar was suspended via agitation with an inoculating loop in 1 mL of M9*1 media for collection in a 1.7 mL micro centrifuge tube, as noted in Table 4. The bacteria was suspended again in M9*1 media, agitated, and collected into the same 1.7 mL microcentrifuge tube used in the previous step. The tube was centrifuged for 5 minutes at 4,000×G, supernatant decanted, the pellet was resuspended in 1 mL of M9*1 media, and vortex. This washing process was repeated for a total of 4 times.
A tenfold dilution in M9*1 media was performed using 1 mL of the washed bacterial culture. Of the tenfold dilution 200 μL was placed in an untreated 96-well plate (Falcon, Pasadena Tx.) for an initial optical density (OD) reading at a wavelength of 600 nm. The OD was used to correlate to colony forming units (CFU) per milliliter by using linear regression lines for each organism. […]

[2] = tested on: Staphylococcus epidermidis (M23864:W2); assay: Carbohydrate Screening Test Method (Biolog phenotype microarray), Bacteria Code J; conditions: Commensal; carbon microarray plate, OD 600 nm, 36 hr, 33° C.; positive = more than 0.05 OD units above zero; blank cell = not utilized
Text: as §1
(§4) The Bacteria Codes B, D, E, I, and J are commensal bacteria and are shaded in Table 2 for references purposes. The bacteria codes were each placed in a carbon microarray plate and screened through the Carbohydrate Screening Test Method, as described in the Test Methods section herein. If a particular bacteria code utilized a specific carbohydrate source as described in the Carbohydrate Screening Test Method, then the corresponding cell in Table 2 was marked with a Y (short for “Yes”).
(§5) To do so, the respective microarray data for the 79 carbohydrate sources was run through the GrowthRates 2.1 program to obtain growth parameters, such as growth rates and maximum yield data as described by the Belingham Research Institute, Hall, B. G., H. Acar and M. Barlow. 2014 Growth Rates Made Easy. Mol. Biol. Evol. 31:232-238 doi:10.1093/molbev/mst197. The max yield parameters generated were utilized to calculate ratios of tested commensal bacteria. The ratios calculated were compared back to the desired ratios identified above (Corynebacterium to Staphylococcus of 1.3, Corynebacterium to Micrococcus of 1.4, and Staphylococcus to Micrococcus of 1.1).
(§6) As an example of this methodology used to calculate the commensal bacteria ratios and the difference between the calculated ratios and the desired ratios, an example code from Table 3 will be described. […] The max yields were then used to calculate ratios the bacteria would reach in a co-culture.

[3] = tested on: Pseudomonas aeruginosa (ATCC 9027); conditions: Pathogenic; carbon microarray plate, OD 600 nm, 36 hr, 33° C.; positive = more than 0.05 OD units above zero; blank cell = not utilized
Text: as §1, §4, §2, §3
A tenfold dilution in M9*1 media was performed using 1 mL of the washed bacterial culture. Of the tenfold dilution 200 μL was placed in an untreated 96-well plate (Falcon, Pasadena Tx.) for an initial optical density (OD) reading at a wavelength of 600 nm. The OD was used to correlate to colony forming units (CFU) per milliliter by using linear regression lines for each organism.

[4] = tested on: Corynebacterium jeikum (ATCC 33033); assay: Carbohydrate Screening Test Method (Biolog phenotype microarray), Bacteria Code B; conditions: Commensal; carbon microarray plate, OD 600 nm, 36 hr, 33° C.; positive = more than 0.05 OD units above zero; blank cell = not utilized
Description: The screening process was set up to determine which carbohydrate sources promoted commensal and/or pathogenic bacteria as well as to obtain individual and combinations of carbohydrate sources that could serve as microbiota balancing agents that can support or maintain the healthy proportions of commensal skin bacteria of Corynebacterium, Staphylococcus, and Micrococcus. The screening was conducted utilizing Biolog phenotype microarray plates (Hayward, Calif.). Table 1 provides a coded list of the commensal and pathogenic skin bacteria that the carbohydrates were screened against.
as §4
as §5, with “2014 Growth Rates Made Easy.” left out, “31:232-238 doi:10.1093/molbev/mst197.” left out
as §6
A passage of the culture was made using a sterile swab and streaked onto two M9*2 agar plates to prepare the incubated culture for the phenotype microarray pate according to Table 4.
All cultures were harvested and washed before inoculation into the carbon microarray plate (BiOLOG, Hayward Calif.), with Biolog Plates PM1 and PM2 each having a source definition of Carbon. The bacteria on the M9*2 agar was suspended via agitation with an inoculating loop in 1 mL of M9*1 media for collection in a 1.7 mL micro centrifuge tube, as noted in Table 4.

[5] = tested on: Micrococcus luteus (SK58); assay: Carbohydrate Screening Test Method (Biolog phenotype microarray), Bacteria Code E; conditions: Commensal; carbon microarray plate, OD 600 nm, 36 hr, 33° C.; positive = more than 0.05 OD units above zero; blank cell = not utilized
Text: as §1, §4, §5, §6

Compound: NCC(O)c1ccc(O)cc1 [D.L-Octopamine]
- Carbohydrate Screening Results, Bacteria Code C [1]: Y
- Carbohydrate Screening Results, Bacteria Code J [2]: Y
- Carbohydrate Screening Results, Bacteria Code F [3]: Y

Compound: Mannan
- Carbohydrate Screening Results, Bacteria Code J [2]: Y

Compound: O=C(O)[C@H](O)[C@@H](O)[C@H](O)[C@H](O)CO [D-Gluconic Acid]
- Carbohydrate Screening Results, Bacteria Code B [4]: Y
- Carbohydrate Screening Results, Bacteria Code C [1]: Y
- Carbohydrate Screening Results, Bacteria Code E [5]: Y
- Carbohydrate Screening Results, Bacteria Code J [2]: Y
- Carbohydrate Screening Results, Bacteria Code F [3]: Y

Compound: NCCCCC(=O)O [δ-Amino Valeric Acid]
- Carbohydrate Screening Results, Bacteria Code J [2]: Y

Compound: OC[C@@H](O)C(O)[C@H](O)CO [D-Arabitol]
- Carbohydrate Screening Results, Bacteria Code C [1]: Y
- Carbohydrate Screening Results, Bacteria Code F [3]: Y

Compound: OC[C@H]1O[C@H](OCC2O[C@@H](O)[C@H](O)[C@@H](O)[C@@H]2O)[C@H](O)[C@@H](O)[C@H]1O (stereo partly drawn) [D-Melibiose]
- Carbohydrate Screening Results, Bacteria Code B [4]: Y
- Carbohydrate Screening Results, Bacteria Code C [1]: Y
- Carbohydrate Screening Results, Bacteria Code E [5]: Y
- Carbohydrate Screening Results, Bacteria Code F [3]: Y

Compound: O=C[C@H](O)[C@@H](O)[C@@H](O)CO [L-Arabinose]
- Carbohydrate Screening Results, Bacteria Code C [1]: Y
- Carbohydrate Screening Results, Bacteria Code F [3]: Y

Compound: N[C@@H](Cc1c[nH]cn1)C(=O)O [L-Histidine]
- Carbohydrate Screening Results, Bacteria Code C [1]: Y
- Carbohydrate Screening Results, Bacteria Code F [3]: Y

Compound: Dextrin
- Carbohydrate Screening Results, Bacteria Code C [1]: Y
- Carbohydrate Screening Results, Bacteria Code J [2]: Y

Compound: OC[C@@H](O)[C@@H](O[C@H]1O[C@H](CO)[C@@H](O)[C@H](O)[C@H]1O)[C@H](O)[C@@H](O)CO [Maltitol]
- Carbohydrate Screening Results, Bacteria Code C [1]: Y
- Carbohydrate Screening Results, Bacteria Code F [3]: Y

Compound: O=C[C@H](O)[C@@H](O)[C@H](O)CO [D-Xylose]
- Carbohydrate Screening Results, Bacteria Code C [1]: Y
- Carbohydrate Screening Results, Bacteria Code F [3]: Y

Compound: O=C[C@H](O)[C@@H](O)[C@H](O)[C@H](O)C(=O)O [D-Glucuronic Acid]
- Carbohydrate Screening Results, Bacteria Code B [4]: Y
- Carbohydrate Screening Results, Bacteria Code C [1]: Y
- Carbohydrate Screening Results, Bacteria Code E [5]: Y
- Carbohydrate Screening Results, Bacteria Code F [3]: Y

Compound: OCC(O)CO [Glycerol]
- Carbohydrate Screening Results, Bacteria Code B [4]: Y
- Carbohydrate Screening Results, Bacteria Code C [1]: Y
- Carbohydrate Screening Results, Bacteria Code J [2]: Y

Compound: O=C(CO)[C@H](O)[C@H](O)[C@H](O)CO [D-Psicose]
- Carbohydrate Screening Results, Bacteria Code B [4]: Y
- Carbohydrate Screening Results, Bacteria Code C [1]: Y
- Carbohydrate Screening Results, Bacteria Code E [5]: Y
- Carbohydrate Screening Results, Bacteria Code F [3]: Y

Compound: O=C(O)[C@H](O)[C@@H](O)C(=O)O [L-Tartaric Acid]
- Carbohydrate Screening Results, Bacteria Code C [1]: Y
- Carbohydrate Screening Results, Bacteria Code F [3]: Y

Compound: OC[C@H]1O[C@@H]2O[C@H]3[C@H](O)[C@@H](O)[C@@H](O[C@H]4[C@H](O)[C@@H](O)[C@@H](O[C@H]5[C@H](O)[C@@H](O)[C@@H](O[C@H]6[C@H](O)[C@@H](O)[C@@H](O[C@H]7[C@H](O)[C@@H](O)[C@@H](O[C@H]8[C@H](O)[C@@H](O)[C@@H](O[C@H]9[C@H](O)[C@@H](O)[C@@H](O[C@H]1[C@H](O)[C@H]2O)O[C@@H]9CO)O[C@@H]8CO)O[C@@H]7CO)O[C@@H]6CO)O[C@@H]5CO)O[C@@H]4CO)O[C@@H]3CO [γ-Cyclodextrin]
- Carbohydrate Screening Results, Bacteria Code J [2]: Y

Compound: OC[C@@H](O)[C@@H](O)[C@H](O)[C@@H](O)CO [D-Sorbitol]
- Carbohydrate Screening Results, Bacteria Code C [1]: Y
- Carbohydrate Screening Results, Bacteria Code E [5]: Y
- Carbohydrate Screening Results, Bacteria Code F [3]: Y

Compound: O=C(O)[C@]1(O)C[C@@H](O)[C@@H](O)[C@H](O)C1 [Quinic Acid]
- Carbohydrate Screening Results, Bacteria Code C [1]: Y
- Carbohydrate Screening Results, Bacteria Code F [3]: Y

Compound: OC[C@@H](O)[C@@H](O)[C@@H](O)CO [Adonitol]
- Carbohydrate Screening Results, Bacteria Code B [4]: Y
- Carbohydrate Screening Results, Bacteria Code C [1]: Y
- Carbohydrate Screening Results, Bacteria Code E [5]: Y
- Carbohydrate Screening Results, Bacteria Code F [3]: Y

Compound: O=P(O)(O)OCC(O)CO (racemic) [D,L-α-Glycerol-Phosphate]
- Carbohydrate Screening Results, Bacteria Code B [4]: Y
- Carbohydrate Screening Results, Bacteria Code E [5]: Y
- Carbohydrate Screening Results, Bacteria Code J [2]: Y

Compound: CC(=O)N[C@@H](CO)[C@@H](O)[C@H](O)[C@H](O)CO [N-Acetyl-D-Glucosaminitol]
- Carbohydrate Screening Results, Bacteria Code J [2]: Y

Compound: NCCc1ccc(O)cc1 [Tyramine]
- Carbohydrate Screening Results, Bacteria Code B [4]: Y
- Carbohydrate Screening Results, Bacteria Code C [1]: Y
- Carbohydrate Screening Results, Bacteria Code F [3]: Y

Compound: C[N+](C)(C)CC(O)CC(=O)[O-] (racemic) [D,L-Carnitine]
- Carbohydrate Screening Results, Bacteria Code J [2]: Y
- Carbohydrate Screening Results, Bacteria Code F [3]: Y
